Source: patent US20240287046A1, “COMPOUNDS AND RADIOLIGANDS FOR TARGETING NEUROTENSIN RECEPTOR AND USES THEREOF” (Full-Life Technologies HK Limited, priority 2022, published 2024)

Columns and labels:
human NTSR-1 [1] = target: T1, human NTSR-1 (Homo sapiens (Human), UniProt P30989); assay: radioligand competitive binding assay using ^177Lu labeled C-1 as reference radioligand; settings: Mean IC50 of C-1/Mean IC50 of the test compound
Experimental: The binding affinities of test compounds were determined by a radioligand competitive binding assay using ^177Lu labeled C-1 as the reference radioligand.
Briefly, 100 μL HT-29 cells expressing human NTSR-1 at a density of 1˜2×10^6 cells/mL were mixed with binding buffer (RPMI-1640 medium supplemented with 0.25% bovine serum albumin) in each well of the 96-well filter plate (Millipore). Then the cells in each well were incubated with ^177Lu—C-1 (0.55 μCi/well) and the test compound under 37° C. for 1 hr (n=3). After incubation, unbound ^177Lu—C-1 and the test compound in each well was removed by filtration using a Multiscreen vacuum manifold (Millipore) and the cells were further rinsed with the binding buffer for 5 times. The cells from each well were then collected and radioactivity of the cells in each well was individually measured by y counter (2480 WIZARD2, PerkinElmer). The best-fit IC50 value of test compounds (inhibitory concentration when 50% of the bound ^177Lu—C-1 on cells were displaced) were calculated by fitting the data with nonlinear regression using GraphPad Prism 8.0.1.

human NTSR-1 [2] = target: T1, human NTSR-1; assay: FLIPR assay, inhibition of Neurotensin-induced intracellular-calcium mobilization; type: cell-based
Experimental: Binding affinities of the representative compounds were also evaluated by FLIPR assay. Neurotensin receptor 1 belongs to the G-protein coupled receptors (GPCR) family. Activation of NTSR-1 by its ligand Neurotensin can induce intracellular-calcium mobilization. In FLIPR assay, the test compound and Neurotensin were incubated together with cells expressing NTSR-1 to measure inhibition of the intracellular-calcium mobilization by the test compound so that to evaluate its binding affinity.
Briefly, HEK293 cells stably expressing human NTSR-1 were plated in 384-well plates. 20 ul cell suspension at a concentration of 10×10^5 per ml was seeded in each well and incubated at 37° C. 5% CO2 overnight. Then the cells in each well were mixed with 20 ul probenecid assay buffer, 20 ul 8 uM Fluo-4 Direct™ Loading Buffer, 6×EC80 of Neurotensin and 10 μl of the diluted test compound, and incubated at 37° C. 5% CO2 for 50 min followed by incubation at room temperature for 10 min. The plate was then subject to FLIPR analysis.

[3] = test system: ASPC-1 tumor-bearing mice; assay: Biodistribution of radionuclide labeled complexes in ASPC-1 tumor-bearing mice; type: in vivo, BALB/c nude mice; settings: ^177Lu-labeled complex
Method in brief: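 Radiolabeled compound (~30-50 μCi, ~1.11-1.85 MBq, specific activity 30-250 μCi/nmol) was injected i.v. via tail vein into nude mice carrying 0.05-0.50 g subcutaneous NTSR-1-positive human tumors. At set times, tissues were collected, weighed and γ-counted; % ID and % ID/g were calculated.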

T1 sequence (P30989 whole entry): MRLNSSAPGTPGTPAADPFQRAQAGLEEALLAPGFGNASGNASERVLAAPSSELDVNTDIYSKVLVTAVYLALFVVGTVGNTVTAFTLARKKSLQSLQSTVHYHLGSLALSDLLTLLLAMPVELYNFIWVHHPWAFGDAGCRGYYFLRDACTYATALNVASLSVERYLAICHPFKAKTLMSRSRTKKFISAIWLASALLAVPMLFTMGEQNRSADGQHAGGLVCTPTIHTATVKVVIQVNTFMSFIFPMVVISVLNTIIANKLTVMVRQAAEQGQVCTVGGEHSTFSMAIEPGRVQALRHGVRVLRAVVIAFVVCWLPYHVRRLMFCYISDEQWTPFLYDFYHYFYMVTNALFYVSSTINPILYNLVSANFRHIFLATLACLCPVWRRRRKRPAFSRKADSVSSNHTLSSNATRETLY

COc1cccc(OC)c1-c1cc(C(=O)NC2(C(=O)O)C3CC4CC(C3)CC2C4)nn1-c1ccc(NC(=O)CCCN(C)CCCN(C)C(=O)CN2CCN(CC(=O)O)CCN(CC(=O)O)CCN(CC(=O)O)CC2)cc1C(C)C (stereo not shown) [Compound I-5, 2,2′,2″-(10-(2-((3-((4-((4-(3-((2-carboxyadamantan-2-yl)carbamoyl)-5-(2,6-dimethoxyphenyl)-1H-pyrazol-1-yl)-3-isopropylphenyl)amino)-4-oxobutyl)(methy)amino)propyl)(methyl)amino)-2-oxoethyl)-1,4,7,10-tetraazacyclododecane-1,4,7-triyl)triacetic acid]
Relative Binding Affinity (human NTSR-1 [1]): 146.4
IC50 compared to comparator compound C-2 (human NTSR-1 [2]; FLIPR assay): lower IC50
IC50 (human NTSR-1 [2]; HEK293 cells stably expressing human NTSR-1, mean, read-out: IC50 (nM) in FLIPR Assays): 26.9 nM
AUC (0-72 h) ratio Tumor/Blood [3]: 10.0
AUC (0-72 h) ratio Tumor/Kidney [3]: 14.2
AUC (0-72 h) ratio Tumor/Liver [3]: 16.7
AUC (0-72 h) ratio Tumor/Lung [3]: 48.3
